# Laboratory results: patent publication US12569495B2, “Inhibitors of porcine reproductive and respiratory syndrome virus” (UNIVERSITY OF CONNECTICUT, priority 2020, dated 2026)
# Where “and” joins values, the source holds several entries; their conditions need not be identical. Equal entries are not always repeated. Entries after “also recorded” stand apart in the source; their conditions may differ.
# Key:
# [1] = target: T1, protein-protein interactions (PPI) between CD163-SRCR5 domain and PRRSV GP2a protein (Sus scrofa, UniProt Q2VL90); test: BiFC assay between SRCR5-VN and GP2a-VC proteins; type: cell-based, porcine CD163; PRRSV; details: HEK293T cells; compounds at 5 μM; 24 h; DMSO as Ctrl
# T1 construct: The amplified cDNA fragments of SRCR2 or SRCR5 were subcloned into the pBiFC-VN155(I152L) vector; Myc tag (from vector backbone pMyc-CMV); expressed in transfected cells; host or cells: HEK293T
# Excerpt: (§1) The N-terminus and C-terminus of the truncated Venus-I152L were inserted into vector backbone pMyc-CMV and pCMV-HA, constituting commercial plasmids pBiFC-VN155(I152L) and pBiFC-VC155, respectively (Addgene, Watertown, MA, USA). See Kodama and Hu, Biotechniques 49:793-805 (2010). cDNA fragments for the scavenger receptor cysteine-rich domain 2 (SRCR2) and SRCR5 of porcine CD163 receptor, and for PRRSV glycoproteins GP2a and GP4 were amplified by RT-PCR. The amplified cDNA fragments of SRCR2 or SRCR5 were subcloned into the pBiFC-VN155(I152L) vector digested with EcoRI/BglII. For constructions of GP2a and GP4 fusion proteins, cDNA fragments encoding GP2a or GP4 were subcloned into the pBiFC-VC155 vector digested with EcoRI/BglII. All plasmid clones were verified by DNA Sanger sequencing.
# (§2) HEK293T cells cultured in 12-well plates were transfected with appropriate plasmids for each BiFC assay using FuGENE® 6 (Promega, Madison, WI, USA). After 5 h, various concentrations of chemical compounds were added to the culture media. DMSO was used as the vehicle control. Fluorescence images of treated cells at 24 h after plasmid transfection were captured using an inverted Nikon fluorescence microscope. Fluorescence intensity of treated cells was measured by ImageJ.
# Using the previously described BiFC vector based on the fragmented venus protein (VN-155[I152L], hereafter named VN) and (VC-155, hereafter named VC), fusion protein constructs were established between the porcine CD163 protein SRCR5 or SRCR2 domain and VN, and between the PRRSV minor glycoproteins (GP2a or GP4) and VC (FIG. 1A, 2). See Kodama et al., Biotechniques 49(5): 793-805 (2010). These plasmids were co-expressed in HEK293T cells to evaluate the PPIs between the SRCR5 domain and GP2a or GP4.
# The BiFC assays was tested to determine whether it could identify small molecules with potential to block the protein-protein interactions between CD163 and PRRSV. A customized virtual screen of a library of commercially available small molecules was performed with the AtomNet® model at a region centered around R561 (FIG. 3) based on the available 3-D protein structure of porcine CD163-SRCR5 domain, and 74 compounds predicted to target this potential binding site were procured. Ma et al., J. Virol. 91(3): e01897-16 (2017). These compounds were tested using the BiFC assay, to evaluate their ability to inhibit the PPI between GP2a and SRCR5. Plasmids were co-transfected in HEK293T cells, 4 h later, compounds were individually administered to cells at 5 μM. Twenty-four hours later, images were taken under a fluorescence microscope and the fluorescence quantified. […] Until these studies, there has been no known biological activity reported for compound B7.
# [2] = target: T2, PPI between PRRSV GP4 glycoprotein and CD163-SRCR5 domain (Sus scrofa, UniProt Q2VL90); test: BiFC assay between SRCR5-VN and GP4-VC proteins; type: cell-based, porcine CD163; PRRSV; details: HEK293T cells; DMSO as Ctrl
# T2 construct: The amplified cDNA fragments of SRCR2 or SRCR5 were subcloned into the pBiFC-VN155(I152L) vector; Myc tag (from vector backbone pMyc-CMV); expressed in transfected cells; host or cells: HEK293T
# Excerpt: as §1, with “All plasmid clones were verified by DNA Sanger sequencing.” left out
# as §2, with “After 5 h, various concentrations of chemical compounds were added to the culture media. DMSO was used as the vehicle control.” left out, “ImageJ. […]” for “ImageJ.”
# The BiFC assays was tested to determine whether it could identify small molecules with potential to block the protein-protein interactions between CD163 and PRRSV. […] Twenty-four hours later, images were taken under a fluorescence microscope and the fluorescence quantified. […]
# [3] = Rat acute toxicity study; type: in vivo, Sprague Dawley laboratory male rats
# Experimental: The study was conducted as: • 1. Eight 10-week Sprague Dawley laboratory male rats (˜260 g each) were randomly selected into two groups (n=4), with group 1 for control and group 2 for B7-treatment. • 2. Day 0, injection of B7 drug. The intramuscular (IM) injection was vehicle for group 1, and 4 mg/kg B7 per rat for group 2, with 0.15 mL of volume per rat, to the left thigh region. The B7 was dissolved in vehicle containing 30% DMSO and 50% propylene glycol (PG), and 20% 20 mM Tris·HCl, pH 8.0. • 3. Days 1-7 observation of rats with daily body weight and temperature measurement and making records of any abnormal behavior. • 4. Day 7 necropsy: Euthanize the rats with CO2, immediately followed by blood sample collection from heart. Conduct postmortem rat gross-anatomic pathology analysis (brain, heart, lung, liver, kidney, spleen). • 5. Conduct clinical pathology analysis (CBC/Chemistry by IDDEX Bioanalytics) for the collected blood samples.
# [4] = rat, IM 4 mg/kg, Day 7 blood, mean n=4
# T1 sequence (Q2VL90 477-577): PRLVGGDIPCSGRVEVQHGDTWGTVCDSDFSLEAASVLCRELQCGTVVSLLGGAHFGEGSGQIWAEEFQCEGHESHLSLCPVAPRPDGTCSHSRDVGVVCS
# T2 sequence (Q2VL90 477-577): as above
compound,measurement,setting,value
"Cc1cc(F)ccc1S(=O)(=O)Nc1nc2ccccc2nc1Nc1cccc(S(=O)(=O)N2CCOCC2)c1 [Compound B7, 4-fluoro-2-methyl-N-[3-(3-morpholin-4-ylsulfonylanilino)quinoxalin-2-yl]benzenesulfonamide]",inhibition of PPI between GP2a and SRCR5 (venus fluorescence in BiFC assay),[1],significantly inhibited the reconstitution of venus fluorescence; also recorded: positive inhibitory effect; also recorded: significantly inhibits the interaction
same,inhibition of PPI between PRRSV GP4 glycoprotein and CD163-SRCR5 domain (BiFC),[2],also inhibited the PPI; also recorded: significantly inhibits the interaction
same,Lipemia Index,"[3]; rat, IM 4 mg/kg, Day 7 blood",Normal
same,ALB/GLOB ratio,[3]; [4],1.2
same,ALP,[3]; [4],277.5 U/L
same,ALT,[3]; [4],95.5 U/L
same,AST,[3]; [4],210.3 U/L and 210.25 U/L
same,Albumin,[3]; [4],3.5 g/dL
same,BUN,[3]; [4],16.8 mg/dL
same,BUN/Creatinine Ratio,[3]; [4],76.7
same,Basophil,[3]; [4],13.5 µL⁻¹
same,Basophils (%),[3]; [4],0.3%
same,Bicarbonate TCO2,[3]; [4],32.8 mmol/L
same,Bilirubin - Conjugated,[3]; [4],0.0 mg/dL
same,Bilirubin - Unconjugated,[3]; [4],0.1 mg/dL
same,Calcium,[3]; [4],11.8 mg/dL
same,Chloride,[3]; [4],97.0 mmol/L
same,Cholesterol,[3]; [4],76.0 mg/dL
same,Creatine kinase,[3]; [4],585.5 U/L
same,Creatinine,[3]; [4],0.2 mg/dL
same,Eosinophil,[3]; [4],19.0 µL⁻¹
same,Eosinophils (%),[3]; [4],0.5%
same,Globulin,[3]; [4],2.9 g/dL
same,Glucose,[3]; [4],175.5 mg/dL
same,HCT,[3]; [4],50.1% and 50.075%
same,HGB,[3]; [4],14.4 g/dL and 14.35 g/dL
same,Lymphocyte,[3]; [4],3188.0 µL⁻¹
same,Lymphocytes (%),[3]; [4],83.1% and 83.125%
same,MCH,[3]; [4],18.9 pg
same,MCHC,[3]; [4],28.7 g/dL
same,MCV,[3]; [4],65.8 fL
same,Monocyte,[3]; [4],179.5 µL⁻¹
same,Monocytes (%),[3]; [4],4.8%
same,NA/K Ratio,[3]; [4],22.3
same,Neutrophil,[3]; [4],425.0 µL⁻¹
same,Neutrophil (%),[3]; [4],11.4% and 11.35%
same,Phosphorus,[3]; [4],13.0 mg/dL
same,Potassium,[3]; [4],6.7 mmol/L
same,RBC,[3]; [4],7.6 M/μL L
same,Sodium,[3]; [4],145.8 mmol/L
same,Total Bilirubin,[3]; [4],0.1 mg/dL
same,Total Protein,[3]; [4],6.4 g/dL
same,WBC,[3]; [4],3.8 K/μL
same,"blood cell counts, B7-treatment versus control","[3]; single IM 4 mg/kg, Day 7",no obvious change for blood cell counts
same,"blood chemistry analysis, B7 versus control","[3]; single IM 4 mg/kg, Day 7",only ALP and AST were changed slightly with statistical significances
same,"gross pathology, kidney","[3]; single IM 4 mg/kg, Day 7 necropsy, T4 = B7 rat","cortical surface of kidney had multiple, mild tan discolorations"
same,"gross pathology, liver","[3]; single IM 4 mg/kg, Day 7 necropsy, T = B7 rats, C = control rats","multifocal to coalescing mild pale tan discoloration on the surface of liver of C2, T3 and T4"
same,daily weight gain and body temperature,"[3]; single IM 4 mg/kg, Days 1-7",normal daily weigh gain and body temperature
same,signs of abnormality during the 7-day study,"[3]; single IM 4 mg/kg, n=4",No signs of abnormality were observed
